Assay results from patent US20220387357A1, “Method of Dosing a Pain Therapeutic” (priority 2021, published 2022).
Read-outs that look alike come from different tables or passages of the source.

Columns and labels:
[1] = Acute pain tail-flick assay, side-by-side mice studies; assay type: in vivo; conditions: side-by-side comparison, similar to opioids
CB1 receptors = CB1 receptors (Homo sapiens, UniProt P21554); conditions: mediated through CB1 receptors; cited from earlier work
[2] = assay type: in vivo, human
From the text: Tachycardia was the most common adverse event (AE) in this study, reported in 5 of 48 subjects (10%) following active treatment and in no subjects following placebo; all of the treatment-emergent AEs (TEAEs) of tachycardia were deemed related to study treatment.
The Toxicity Grading Scale for Healthy Adult and Adolescent Volunteers Enrolled in Preventative Vaccine Clinical Trials criteria for tachycardia are defined as follows: […]
Severe (Grade 3): >130 bpm
In this study, tachycardia was dose limiting at a level >130 bpm.

[3] = Nonclinical studies of analgesia compared with morphine; assay type: in vivo
[4] = Preclinical animal models of pain; assay type: in vivo; conditions: acute pain, visceral pain, fibromyalgia, diabetic peripheral neuropathy, sciatica, chemotherapy induced pain, osteoarthritis models
From the text: (§1) Nevertheless, CMX-020 may produce adverse side effects when given at improper dosages. Methods of administrating an effective amount of the compound CMX-020 to produce an analgesia effective, while still being within a safe and tolerable dose, is both necessary and desirable.

[5] = assay type: in vivo, humans
From the text: as §1

[6] = Subject 0048, 0.24 mg/kg 15-minute infusion
[7] = Subject 0057, 0.32 mg/kg 30-minute infusion
[8] = following active treatment, all dose levels

CB1 receptors, sequence (P21554 whole entry): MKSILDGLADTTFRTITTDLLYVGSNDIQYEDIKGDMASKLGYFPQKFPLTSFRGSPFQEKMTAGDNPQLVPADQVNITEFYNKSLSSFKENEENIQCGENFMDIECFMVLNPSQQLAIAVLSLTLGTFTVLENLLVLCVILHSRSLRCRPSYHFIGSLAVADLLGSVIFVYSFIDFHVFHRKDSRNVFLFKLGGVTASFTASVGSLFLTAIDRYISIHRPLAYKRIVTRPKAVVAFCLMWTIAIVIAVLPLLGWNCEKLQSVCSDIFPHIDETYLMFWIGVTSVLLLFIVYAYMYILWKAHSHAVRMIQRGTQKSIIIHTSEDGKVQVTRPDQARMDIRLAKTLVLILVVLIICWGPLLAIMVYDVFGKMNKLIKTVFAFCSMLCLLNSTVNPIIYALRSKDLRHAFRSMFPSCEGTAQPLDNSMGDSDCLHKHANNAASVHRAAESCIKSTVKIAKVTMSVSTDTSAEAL

CCCCC/C=C\C/C=C\C/C=C\C/C=C\CCCC(=O)Nc1ccc(O)cc1 [AM404, reference compound]
Analgesic efficacy in the acute pain tail-flick assay [1]: highest level of analgesic efficacy | Anticonvulsant action (CB1 receptors): anticonvulsant action mediated through CB1 receptors

CCCCCC(=O)N(CCC=C=CCCCC=C=CCC=C=CCCCC(=O)NC1CC1)C(C)C [CMX-020]
Number of elevated heart rate assessed as clinically significant ([2]; 0.32 mg/kg and 0.24 mg/kg 15-minute infusion groups compared with the other dose levels and placebo): higher number | Doses at which tachycardia was reported ([2]; 0.32 mg/kg and 0.24 mg/kg 15 minutes infusion and 0.32 mg/kg 30 minute infusion): only at the three highest doses | Time of peak heart rate following the start of treatment administration ([2]; Subject 0033, 0.32 mg/kg 15-minute infusion): 16 min | Heart rate after decrease ([2]; Subject 0033, 0.32 mg/kg 15-minute infusion, 15 minutes following the peak heart rate): 113 bpm | Peak Pulse ([2]; Subject 0033, Cohort 5, 0.32 mg/kg 15-minute infusion): 138 bpm | Time of peak heart rate following the start of dose administration ([2]; Subject 0036, 0.32 mg/kg 15-minute infusion): 16 min | Heart rate after decrease ([2]; Subject 0036, 0.32 mg/kg 15-minute infusion, 15 minutes following the start of treatment administration (so in the source)): 101 bpm | Peak Pulse ([2]; Subject 0036, Cohort 5, 0.32 mg/kg 15-minute infusion): 110 bpm | Time of elevated heart rate following the start of dose administration ([2]; Subject 0045, 0.24 mg/kg 15-minute infusion): 11 min | Heart rate after decrease ([2]; Subject 0045, 0.24 mg/kg 15-minute infusion, 10 minutes following the start of treatment administration (so in the source)): 109 bpm | Peak Pulse ([2]; Subject 0045, Cohort 6, 0.24 mg/kg 15-minute infusion (discontinued, total dose received 0.156 mg/kg)): 156 bpm | Time of TEAE of tachycardia following start of treatment administration [2, 6]: 11 min | Time of peak heart rate following start of treatment administration [2, 6]: 16 min | Heart rate after decrease ([2]; Subject 0048, 0.24 mg/kg 15-minute infusion, 15 minutes following the peak heart rate): 103 bpm | Peak Pulse ([2]; Subject 0048, Cohort 6, 0.24 mg/kg 15-minute infusion): 109 bpm | Time of TEAE of tachycardia following start of treatment administration [2, 7]: 16 min | Time of peak heart rate following start of treatment administration [2, 7]: 20 min | Heart rate after decrease ([2]; Subject 0057, 0.32 mg/kg 30-minute infusion, 20 minutes following the peak heart rate): 97 bpm | Peak Pulse ([2]; Subject 0057, Cohort 8, 0.32 mg/kg 30-minute infusion): 110 bpm | Time of peak in elevated heart rate following the start of treatment administration ([2]; cohorts 5 and 6, 15-minute infusions): 11 to 16 min | Time of peak in elevated heart rate ([2]; cohorts 7 and 8, 30-minute infusions): approximately 30 minutes | Incidence of tachycardia (adverse event) [2, 8]: 10% | Subjects reporting tachycardia (adverse event) [2, 8]: 5 of 48 | Analgesic efficacy in the acute pain tail-flick assay [1]: highest level of analgesic efficacy | Analgesia compared with morphine [3]: analgesia equivalent to that achieved by morphine | Pain response in animal models of pain [4]: effectively reduce the pain response | Efficacy in proof-of-concept trial in sciatic pain ([5]; humans, sciatic pain): indicated efficacy | Safety when administered to humans ([5]; intravenous and oral formulations, several dose levels): demonstrated the safety
